Assays:
[1] = test system: Perennial rye grass, crabgrass, red root pigweed, mustard; assay: Preliminary Herbicide Seed Germination Test; details: each rated 1 (no injury) to 5 (no seedlings emerged)
[2] = test system: adults and nymphal stages of the two-spotted mite; assay: Mite Foliage Spray Test; type: in vivo, Tetranychus urticae (Koch); parameters: key: 1: no mortality; 3: an approximately 50% mortality; 5: 100% mortality; details: 4 days
Source text: (§1) The test procedures were as follows:
(§2) Compositions were rated on the basis of percent kill with a rating of 1 indicating no mortality; 3 signifying an approximately 50% mortality and 5 indicating 100% mortality at the indicated dosage.

[3] = test system: egg of the two-spotted mite; assay: Mite Ovicide Test; type: in vivo, Tetranychus urticae (Koch); parameters: key to Mite Ova rating: 1: no mortality; 3: an approximately 50% mortality; 5: 100% mortality; details: for Mite Ova rating: spray on eggs, 4 days
Source text: as §1
The plants were allowed to dry thoroughly.
as §2

[4] = rating/maximum 20: 100 ppm only, four species
[5] = rating/maximum 30: 100 and 1000 ppm, crabgrass omitted
[6] = rating/maximum 40: 100 and 1000 ppm, four species, 10-12 days

Structure (SMILES)	Herbicide (total preemergence rating) [1, 4]	Mite Adult rating [2]	Mite Ova rating [3]	Mite ova kill ([3]; 500 ppm)	Herbicide (total preemergence rating) [1, 5]	Herbicide (total preemergence rating) [1, 6]
Cc1cc(C)c(C2=C(OC(=O)c3c(C)cccc3C)c3ccccc3C2=O)c(C)c1 [3-(2,6-Dimethylbenzoyloxy)-2-(2',4',6'-trimethylphenyl)indone]	4/20	1	1	–	–	–
Cc1cccc(C)c1C(=O)OC1=C(c2c(Cl)cccc2Cl)C(=O)c2ccccc21 [3-(2,6-Dimethylbenzoyloxy)-2-(2',6'-dichlorophenyl)indone]	4/20	1	1	About 20%	–	–
CCCCC(CC)C(=O)OC1=C(c2cccc3ccccc23)C(=O)c2ccccc21 (stereo not shown) [3-(2-Ethylhexanoyloxy)-2-(1-Naphthyl)indone]	14/20	1	1	–	–	–
CCCCC(CC)C(=O)OC1=C(c2ccccc2F)C(=O)c2ccccc21 (stereo not shown) [3-(2-Ethylhexanoyloxy)-2-(2'-fluorophenyl)indone]	4/20	3 (an approximately 50% mortality)	5 (100% mortality)	–	–	–
CCCCC(CC)C(=O)OC1=C(c2ccccc2OC)C(=O)c2ccccc21 (stereo not shown) [3-(2-Ethylhexanoyloxy)-2-(2'-methoxyphenyl-indone]	4/20	1	1	–	–	–
CCCCC(CC)C(=O)OC1=C(c2ccccc2C)C(=O)c2ccccc21 (stereo not shown) [3-(2-Ethylhexanoyloxy)-2-(2'-methylphenyl)indone]	4/20	3 (an approximately 50% mortality)	5 (100% mortality)	–	–	–
CCCCC(CC)C(=O)OC1=C(c2ccccc2)C(=O)c2ccccc21 (stereo not shown) [3-(2-Ethylhexanoyloxy)-2-phenylindone]	4/20	1	1	–	–	–
Cc1cc(C)c(C2=C(OC(=O)c3ccccc3C)c3ccccc3C2=O)c(C)c1 [3-(2-Methylbenzoyloxy)-2-(2',4',6'-trimethylphenyl)indone]	–	5 (100% mortality)	5 (100% mortality)	–	19/30	–
Cc1ccccc1C(=O)OC1=C(c2c(Cl)cccc2Cl)C(=O)c2ccccc21 [3-(2-Methylbenzoyloxy)-2-(2',6'-dichlorophenyl)indone]	–	5 (100% mortality)	5 (100% mortality)	–	–	31/40
CCC(CC)C(=O)OC1=C(c2ccc(C(C)C)cc2)C(=O)c2ccccc21 [3-(2-ethylbutanoyloxy)-2-(4'-isopropylphenyl)indone]	4/20	1	1	–	–	–
Cc1cc(C)c(C2=C(OC(=O)c3ccc(Cl)c(Cl)c3)c3ccccc3C2=O)c(C)c1 [3-(3,4-Dichlorobenzoyloxy)-2-(2',4',6'-trimethylphenyl)indone]	–	5 (100% mortality)	5 (100% mortality)	–	–	32/40
O=C(OC1=C(c2c(Cl)cccc2Cl)C(=O)c2ccccc21)c1ccc(Cl)c(Cl)c1 [3-(3,4-Dichlorobenzoyloxy)-2-(2',6'-dichlorophenyl)indone]	–	5 (100% mortality)	5 (100% mortality)	–	–	29/40
Cc1cc(C)c(C2=C(OC(=O)c3cc(Cl)cc(Cl)c3)c3ccccc3C2=O)c(C)c1 [3-(3,5-Dichlorobenzoyloxy)-2-(2',4',6'-trimethylphenyl)indone]	–	5 (100% mortality)	5 (100% mortality)	–	23/30	–
O=C(OC1=C(c2c(Cl)cccc2Cl)C(=O)c2ccccc21)c1cc(Cl)cc(Cl)c1 [3-(3,5-Dichlorobenzoyloxy)-2-(2',6'-dichlorophenyl)indone]	–	5 (100% mortality)	5 (100% mortality)	–	24/30	–
COc1cccc(C(=O)OC2=C(c3c(C)cc(C)cc3C)C(=O)c3ccccc32)c1 [3-(3-Methoxybenzoyloxy)-2-(2',4',6'-trimethylphenyl)indone]	–	5 (100% mortality)	5 (100% mortality)	–	25/30	–
COc1cccc(C(=O)OC2=C(c3c(Cl)cccc3Cl)C(=O)c3ccccc32)c1 [3-(3-Methoxybenzoyloxy)-2-(2',6'-dichlorophenyl)indone]	–	5 (100% mortality)	5 (100% mortality)	–	23/30	–

Structure (SMILES)	Herbicide (total preemergence rating) [1, 4]	Mite Adult rating [2]	Mite Ova rating [3]	Mite ova kill ([3]; 500 ppm)	Herbicide (total preemergence rating) [1, 5]	Herbicide (total preemergence rating) [1, 6]
Cc1cccc(C(=O)OC2=C(c3c(C)cc(C)cc3C)C(=O)c3ccccc32)c1 [3-(3-Methylbenzoyloxy)-2-(2',4',6'-trimethylphenyl)indone]	–	5 (100% mortality)	5 (100% mortality)	–	–	26/40
Cc1cccc(C(=O)OC2=C(c3c(Cl)cccc3Cl)C(=O)c3ccccc32)c1 [3-(3-Methylbenzoyloxy)-2-(2',6'-dichlorophenyl)indone]	–	5 (100% mortality)	5 (100% mortality)	–	–	29/40
Cc1cc(C)c(C2=C(OC(=O)c3cccc([N+](=O)[O-])c3)c3ccccc3C2=O)c(C)c1 [3-(3-Nitrobenzoyloxy)-2-(2',4',6'-trimethylphenyl)indone]	–	5 (100% mortality)	5 (100% mortality)	–	28/30	–
O=C(OC1=C(c2c(Cl)cccc2Cl)C(=O)c2ccccc21)c1cccc([N+](=O)[O-])c1 [3-(3-Nitrobenzoyloxy)-2-(2',6'-dichlorophenyl)indone]	–	5 (100% mortality)	5 (100% mortality)	–	26/30	–
Cc1cc(C)c(C2=C(OC(=O)c3ccc(Cl)cc3)c3ccccc3C2=O)c(C)c1 [3-(4-Chlorobenzoyloxy)-2-(2',4',6'-trimethylphenyl)indone]	–	5 (100% mortality)	5 (100% mortality)	–	24/30	–
O=C(OC1=C(c2c(Cl)cccc2Cl)C(=O)c2ccccc21)c1ccc(Cl)cc1 [3-(4-Chlorobenzoyloxy)-2-(2',6'-dichlorophenyl)indone]	–	5 (100% mortality)	5 (100% mortality)	–	23/30	–
COc1ccc(C(=O)OC2=C(c3c(C)cc(C)cc3C)C(=O)c3ccccc32)cc1 [3-(4-Methoxybenzoyloxy)-2-(2',4',6'-trimethylphenyl)indone]	–	3 (an approximately 50% mortality)	5 (100% mortality)	–	21/30	–
COc1ccc(C(=O)OC2=C(c3c(Cl)cccc3Cl)C(=O)c3ccccc32)cc1 [3-(4-Methoxybenzoyloxy)-2-(2',6'-dichlorophenyl)indone]	–	5 (100% mortality)	5 (100% mortality)	–	22/30	–
Cc1ccc(C(=O)OC2=C(c3c(C)cc(C)cc3C)C(=O)c3ccccc32)cc1 [3-(4-Methylbenzoyloxy)-2-(2',4',6'-trimethylphenyl)indone]	–	5 (100% mortality)	5 (100% mortality)	–	22/30	–
Cc1ccc(C(=O)OC2=C(c3c(Cl)cccc3Cl)C(=O)c3ccccc32)cc1 [3-(4-Methylbenzoyloxy)-2-(2',6'-dichlorophenyl)indone]	–	5 (100% mortality)	5 (100% mortality)	–	22/30	–
Cc1cc(C)c(C2=C(OC(=O)c3ccc([N+](=O)[O-])cc3)c3ccccc3C2=O)c(C)c1 [3-(4-Nitrobenzoyloxy)-2-(2',4',6'-trimethylphenyl)indone]	–	5 (100% mortality)	5 (100% mortality)	–	26/30	–
O=C(OC1=C(c2c(Cl)cccc2Cl)C(=O)c2ccccc21)c1ccc([N+](=O)[O-])cc1 [3-(4-Nitrobenzoyloxy)-2-(2',6'-dichlorophenyl)indone]	–	5 (100% mortality)	5 (100% mortality)	–	25/30	–
O=C(OC1=C(c2c(Cl)cccc2Cl)C(=O)c2ccccc21)c1ccccc1 [3-(Benzoyloxy)-2-(2',6'-dichlorophenyl)indone]	–	5 (100% mortality)	5 (100% mortality)	–	–	32/40
COc1cc(C)c(C)c(C)c1C1=C(OC(=O)C(C)(C)C)c2ccccc2C1=O [3-(Pivaloyloxy)-2-(6'-methoxy-2',3',4'-trimethylphenyl)indone]	–	1	1	–	–	16/40
CC(=O)OC1=C(c2ccccc2Br)C(=O)c2ccccc21 [3-Acetoxy-2-(2'-bromophenyl)indone]	–	5 (100% mortality)	5 (100% mortality)	–	–	19/40
Cc1cc(C)c(C2=C(OC(=O)c3ccccc3)c3ccccc3C2=O)c(C)c1 [3-Benzoxyloxy-2-(2',4',6'-trimethylphenyl)indone]	–	5 (100% mortality)	5 (100% mortality)	–	–	31/40
